According to patent US7081447B2, “Organic compounds with biological activity as thrombin inhibitors and use thereof” (Novel Science International GmbH, priority 2001, dated 2006):
Each block holds one compound with its values, some of them ahead of it. Non-standard residues stand in square brackets, D forms with d. Residues, ends and D or L forms follow the SMILES beside them. Cha = N[CH](CC1CCCCC1)C(=O)O; Nle = CCCC[CH](N)C(=O)O; Orn = NCCC[CH](N)C(=O)O

Molecular target: thrombin (Homo sapiens, UniProt P00734)
Assay: in vitro inhibition of thrombin amidase activity (fluorogenic substrate Tos-Gly-Pro-Arg-(7-amino-4-methylcoumarin))
Format: biochemical
Parameters: with 10 μL of human thrombin solution
Details: for inhibition at 25 µM: peptide concentration of 25 μM; for inhibition at 10 µM: peptide concentration of 10 μM
Procedure: (§1) The values of the inhibition constant Ki were obtained from assays, in which thrombin hydrolyzes the fluorogenic substrate Tos-Gly-Pro-Arg-(7-amino-4-methylcoumarin). The assays were performed in 30 μL of assay buffer (0.05 M Tris, 0.1 M NaCl, 0.1% PEG 8000, pH 7.6) with 10 μL of human thrombin solution (10^−5 U/μL in assay buffer) and 140 μL of a solution of the fluorogenic substrate in assay buffer at a concentration v of 30 μM. Solutions of the test compound (10 μL) were added at various concentrations. The rates of substrate hydrolysis were measured by monitoring the reactions of 7-amino-4-methylcoumarin release at 460 nm with use of AMC. The reaction reached a steady state within 3 minutes after thrombin was combined with the substrate and an inhibitor. The kinetic data of the competitive inhibition (Km, Vmax, and Ki) were analyzed with the aid of the Hanes plot (A/V vs. A at various i values).
as §1, with “concentration” for “concentration v”, “using” for “with the aid of”, “values for A; here, A is the substrate concentration and V the reaction rate).” for “i values).”
as §1, with “conducted” for “performed”, “concentration” for “concentration v”, “using” for “with the aid of”, “values for A; here, A is the substrate concentration and V the reaction rate).” for “i values).”

[1] = peptide concentration of 1 μM, 1 µM
[2] = peptide concentration of 250 nM

Thrombin inhibition (thrombin amidase activity) [1]: 47%
Compound: N-Acetyl-D-Tyr-L-Cha-D-Pro-D-Tyr-L-Arg amide [Example 52]

Thrombin inhibition (thrombin amidase activity) [1]: 47%
Compound: N-Acetyl-L-Ser-L-Ala-L-Cha-D-Pro-D-Tyr-L-Arg amide [Example 34]

Thrombin inhibition (thrombin amidase activity) [1]: 40%
Compound: N-Acetyl-L-Ser-L-Ser-L-Cha-D-Pro-D-Tyr-L-Arg amide [Example 31]

Thrombin inhibition (thrombin amidase activity) (peptide concentration of 1 μM): 43%
Compound: N-Acetyl-L-Ser-L-Cha-L-Cha-D-Pro-D-Tyr-L-Arg amide [Example 19]

Thrombin inhibition (thrombin amidase activity) [1]: 45%
Compound: N-Acetyl-D-Val-L-Cha-D-Pro-D-Tyr-L-Arg amide [Example 32]

Thrombin inhibition (thrombin amidase activity) (peptide concentration of 1 μM): 58%
Compound: N-Acetyl-D-Glu-L-Cha-D-Pro-D-Tyr-L-Arg amide [Example 26]

Thrombin inhibition (thrombin amidase activity) [2]: 90%
Compound: N-Acetyl-L-Cha-D-Cha-L-Aze-D-Tyr-L-Har amide [Example 85]

Thrombin inhibition (thrombin amidase activity) (peptide concentration of 1 μM): 61%
Compound: N-Acetyl-L-Ile-L-Arg-L-Cha-D-Pro-D-Tyr-L-Arg amide [Example 29]

Thrombin inhibition (thrombin amidase activity) [2]: 74%
Compound: N-Acetyl-L-Tea-D-Cha-L-Aze-D-Tyr-L-Har amide [Example 82]

Thrombin inhibition (thrombin amidase activity) [1]: 51%
Compound: N-Acetyl-L-Ser-L-Arg-L-Cha-D-Pro-D-Tyr-L-Arg amide [Example 68]

inhibition at 25 µM: 68%
Compound: [H]/N=C(\N)NCCCC(NC(C)=O)C(=O)NC(CC1CCCCC1)C(=O)NC(CC(=O)O)C(=O)NC(CC1CCCCC1)C(N)=O [Example 2, N-Acetyl-L-Arg-L-Cha-L-Asp-L-Cha amide]

inhibition at 10 µM: 78%
Compound: CC(=O)NC(CCCNC(=N)N)C(=O)NC(CC1CCCCC1)C(=O)NC(CC1CCCCC1)C(=O)NC(CC1CCCCC1)C(=O)NC(CCC(=O)O)C(N)=O [Example 4, N-Acetyl-L-Arg-L-Cha-L-Cha-L-Cha-D-Glu amide] (Ac-R[Cha][Cha][Cha]E-NH2; configuration not given here)

Thrombin inhibition (thrombin amidase activity) [1]: 47%
Compound: N-Acetyl-L-Arg-L-Cha-D-Pro-D-Tyr-L-Arg amide [Example 53]

Thrombin inhibition (thrombin amidase activity) [1]: 47%
Compound: N-Acetyl-D-Tyr-L-Cha-D-Pro-D-Tyr-L-Arg amide [Example 70]

Thrombin inhibition (thrombin amidase activity) [1]: 44%
Compound: N-Acetyl-D-Lys-L-Nle-L-Cha-D-Pro-D-Tyr-L-Arg amide [Example 20]

Thrombin inhibition (thrombin amidase activity) [1]: 38%
Compound: N-Acetyl-L-Arg-L-Cha-D-Pro-D-Tyr-L-Arg amide [Example 21]

inhibition at 1 µM (peptide concentration of 1 μM): 35%
Compound: CCCCC(NC(=O)C(CC1CCCCC1)NC(=O)C(CCCNC(=N)N)NC(C)=O)C(=O)NC(CC1CCCCC1)C(=O)NC(CCC(=O)O)C(N)=O [Example 8, N-Acetyl-L-Arg-L-Cha-L-Nle-L-Cha-D-Glu amide] (Ac-R[Cha][Nle][Cha]E-NH2; configuration not given here)

Thrombin inhibition (thrombin amidase activity) [1]: 55%
Compound: N-Acetyl-L-Tyr-L-Cit-L-Cha-D-Pro-D-Tyr-L-Arg amide [Example 63]

Thrombin inhibition (thrombin amidase activity) [2]: 72%
Compound: N-Acetyl-L-Pnp-D-Cha-L-Aze-D-Tyr-L-Har amide [Example 86]

Thrombin inhibition (thrombin amidase activity) [2]: 80%
Compound: N-Acetyl-L-Nhm-D-Cha-L-Aze-D-Tyr-L-Har amide [Example 79]

Thrombin inhibition (thrombin amidase activity) [1]: 48%
Compound: N-Acetyl-D-Lys-L-Nle-L-Cha-D-Pro-D-Tyr-L-Arg amide [Example 51]

Thrombin inhibition (thrombin amidase activity) (peptide concentration of 1 μM): 53%
Compound: N-Acetyl-D-Val-L-Ala-L-Cha-D-Pro-D-Tyr-L-Arg amide [Example 9]

Thrombin inhibition (thrombin amidase activity) (peptide concentration of 1 μM): 44%
Compound: N-Acetyl-L-Tyr-D-Pro-L-Cha-D-Pro-D-Tyr-L-Arg amide [Example 39]

Thrombin inhibition (thrombin amidase activity) (peptide concentration of 1 μM): 56%
Compound: N-Acetyl-L-Ala-D-Cha-L-Pro-D-Tyr-L-Har amide [Example 56]

Thrombin inhibition (thrombin amidase activity) [1]: 47%
Compound: N-Acetyl-D-Tyr-L-Cha-D-Pro-D-Tyr-L-Arg amide [Example 37]

Thrombin inhibition (thrombin amidase activity) [1]: 40%
Compound: N-Acetyl-L-Ser-L-Ser-L-Cha-D-Pro-D-Tyr-L-Arg amide [Example 64]

Thrombin inhibition (thrombin amidase activity) [1]: 27%
Compound: N-Acetyl-D-Tyr-L-Cha-D-Pro-D-Tyr-L-Arg amide [Example 24]

Thrombin inhibition (thrombin amidase activity) [2]: 77%
Compound: N-Acetyl-D-Phe-D-Cha-L-Aze-D-Tyr-L-Har amide [Example 77]

Thrombin inhibition (thrombin amidase activity) (peptide concentration of 1 μM): 48%
Compound: N-Acetyl-L-Ser-D-Val-L-Cha-D-Pro-D-Tyr-L-Arg amide [Example 16]

Thrombin inhibition (thrombin amidase activity) (peptide concentration of 1 μM): 63%
Compound: N-Acetyl-L-Ala-D-Cha-L-Aze-D-Tyr-L-Arg amide [Example 55]

Thrombin inhibition (thrombin amidase activity) [1]: 47%
Compound: N-Acetyl-L-Ser-L-Ala-L-Cha-D-Pro-D-Tyr-L-Arg amide [Example 67]

Thrombin inhibition (thrombin amidase activity) [2]: 95%
Compound: N-Acetyl-L-Phg-D-Cha-L-Aze-D-Tyr-L-Har amide [Example 83]

Thrombin inhibition (thrombin amidase activity) [1]: 48%
Compound: N-Acetyl-D-Lys-L-Nle-L-Cha-D-Pro-D-Tyr-L-Arg amide [Example 36]

Thrombin inhibition (thrombin amidase activity) [1]: 67%
Compound: N-Acetyl-L-Ser-L-Arg-L-Cha-D-Pro-D-Tyr-L-Arg amide [Example 18]

inhibition at 10 µM: 60%
Compound: CCCCC(NC(=O)C(CC1CCCCC1)NC(=O)C(CCCNC(=N)N)NC(C)=O)C(=O)NC(CC1CCCCC1)C(N)=O [Example 7, N-Acetyl-L-Arg-L-Cha-L-Nle-L-Cha amide] (Ac-R[Cha][Nle][Cha]-NH2; configuration not given here)

Thrombin inhibition (thrombin amidase activity) [1]: 47%
Compound: N-Acetyl-L-Ser-L-Ala-L-Cha-D-Pro-D-Tyr-L-Arg amide [Example 49]

Thrombin inhibition (thrombin amidase activity) [1]: 55%
Compound: N-Acetyl-L-Tyr-L-Cit-L-Cha-D-Pro-D-Tyr-L-Arg amide [Example 45]

Thrombin inhibition (thrombin amidase activity) [2]: 76%
Compound: N-Acetyl-L-Trp-D-Cha-L-Aze-D-Tyr-L-Har amide [Example 75]

Thrombin inhibition (thrombin amidase activity) [1]: 55%
Compound: N-Acetyl-L-Tyr-L-Cit-L-Cha-D-Pro-D-Tyr-L-Arg amide [Example 30]

Thrombin inhibition (thrombin amidase activity) [1]: 40%
Compound: N-Acetyl-L-Ser-L-Ser-L-Cha-D-Pro-D-Tyr-L-Arg amide [Example 46]

Thrombin inhibition (thrombin amidase activity) (peptide concentration of 1 μM): 51%
Compound: N-Acetyl-L-Asp-L-Ser-L-Cha-D-Pro-D-Tyr-L-Arg amide [Example 10]

Thrombin inhibition (thrombin amidase activity) [1]: 51%
Compound: N-Acetyl-L-Ser-L-Arg-L-Cha-D-Pro-D-Tyr-L-Arg amide [Example 50]

Thrombin inhibition (thrombin amidase activity) [1]: 48%
Compound: N-Acetyl-L-Ser-L-Ala-L-Cha-D-Pro-D-Tyr-L-Arg amide [Example 17]

inhibition at 10 µM: 71%
Compound: [H]/N=C(\N)NCCCC(NC(C)=O)C(=O)NC(CC1CCCCC1)C(=O)NC(CC1CCCCC1)C(=O)NC(CC1CCCCC1)C(=O)NC(CCCN)C(N)=O [Example 6, N-Acetyl-L-Arg-L-Cha-L-Cha-L-Cha-L-Orn amide]

inhibition at 10 µM: 63%
Compound: CCCCC(NC(=O)C(CC1CCCCC1)NC(=O)C(CCCNC(=N)N)NC(C)=O)C(=O)NC(CC1CCCCC1)C(=O)NC(CCCN)C(N)=O [Example 3, N-Acetyl-L-Arg-L-Cha-L-Nle-L-Cha-L-Orn amide] (Ac-R[Cha][Nle][Cha][Orn]-NH2; configuration not given here)

Thrombin inhibition (thrombin amidase activity) [1]: 46%
Compound: N-Acetyl-D-Val-L-Cha-D-Pro-D-Tyr-L-Arg amide [Example 12]

inhibition at 10 µM: 98%
Compound: [H]/N=C(\N)NCCCC(NC(=O)C(Cc1ccc(O)cc1)NC(=O)C1CCCN1C(=O)C(CC1CCCCC1)NC(=O)C(CCCN/C(N)=N/[H])NC(C)=O)C(N)=O [Example 5, N-Acetyl-L-Arg-L-Cha-D-Pro-D-Tyr-L-Arg amide]

inhibition at 25 µM: 66%
Compound: [H]/N=C(\N)NCCCC(NC(C)=O)C(=O)NC(CC1CCCCC1)C(=O)NC(CCCC)C(=O)NC(CC1CCCCC1)C(=O)NC(CCC(N)=O)C(N)=O [Example 1, N-Acetyl-L-Arg-L-Cha-L-Nle-L-Cha-D-Gln amide]

Thrombin inhibition (thrombin amidase activity) (peptide concentration of 1 μM): 48%
Compound: N-Acetyl-L-Ile-L-Cha-D-Pro-D-Tyr-L-Arg amide [Example 11]

Thrombin inhibition (thrombin amidase activity) [1]: 47%
Compound: N-Acetyl-L-Arg-L-Cha-D-Pro-D-Tyr-L-Arg amide [Example 71]

Thrombin inhibition (thrombin amidase activity) [2]: 77%
Compound: N-Acetyl-L-Ala-D-Cha-L-Aze-D-Tyr-L-Har amide [Example 76]
